Active and inactive are the calls of the source. The calls are words filed in the database; no cut-off is given here.
Target: T1, Glycogen phosphorylase, muscle form (Oryctolagus cuniculus) (UniProt P00489)
T1 sequence (whole entry): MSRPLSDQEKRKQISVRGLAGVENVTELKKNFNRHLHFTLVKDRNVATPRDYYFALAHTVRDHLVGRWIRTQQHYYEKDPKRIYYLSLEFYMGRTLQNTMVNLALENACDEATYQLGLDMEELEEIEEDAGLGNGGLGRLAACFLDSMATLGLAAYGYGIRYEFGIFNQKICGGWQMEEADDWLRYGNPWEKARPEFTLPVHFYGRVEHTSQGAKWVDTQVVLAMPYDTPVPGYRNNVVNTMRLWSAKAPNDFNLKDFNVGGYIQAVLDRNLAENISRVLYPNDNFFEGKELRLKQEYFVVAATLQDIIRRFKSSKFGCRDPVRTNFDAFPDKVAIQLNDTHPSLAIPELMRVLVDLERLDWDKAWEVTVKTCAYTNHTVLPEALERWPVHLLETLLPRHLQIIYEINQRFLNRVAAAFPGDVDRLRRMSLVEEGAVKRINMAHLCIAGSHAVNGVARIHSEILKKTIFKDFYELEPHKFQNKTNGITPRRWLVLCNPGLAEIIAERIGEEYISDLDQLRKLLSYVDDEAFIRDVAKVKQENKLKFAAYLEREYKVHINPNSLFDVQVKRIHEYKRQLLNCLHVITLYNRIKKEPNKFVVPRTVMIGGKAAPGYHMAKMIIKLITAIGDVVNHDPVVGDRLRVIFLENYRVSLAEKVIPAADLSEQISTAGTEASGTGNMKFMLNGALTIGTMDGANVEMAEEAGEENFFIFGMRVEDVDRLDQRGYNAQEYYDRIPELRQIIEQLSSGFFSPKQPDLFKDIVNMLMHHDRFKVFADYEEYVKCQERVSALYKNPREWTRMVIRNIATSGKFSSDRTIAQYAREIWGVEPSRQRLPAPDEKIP
Assay: Inhibition of rabbit muscle glycogen phosphorylase b at 625 uM

inhibition	SMILES
inactive	CC(C)(C)c1n[nH]c([C@@H]2O[C@H](CO)[C@@H](O)[C@H](O)[C@H]2O)n1
inactive	O=C(O)c1ccc(-c2n[nH]c([C@@H]3O[C@H](CO)[C@@H](O)[C@H](O)[C@H]3O)n2)cc1
inactive	O=[N+]([O-])c1cc(-c2n[nH]c([C@@H]3O[C@H](CO)[C@@H](O)[C@H](O)[C@H]3O)n2)cc([N+](=O)[O-])c1

Target: T2, Glycogen phosphorylase, muscle form (Oryctolagus cuniculus, UniProt P00489)
T2 sequence (P00489 whole entry): T1 sequence (whole entry)
Assay: not given

Ki [µM]	SMILES
1.9	COc1ccc(-c2n[nH]c([C@@H]3O[C@H](CO)[C@@H](O)[C@H](O)[C@H]3O)n2)cc1
1.7	Cc1ccc(-c2n[nH]c([C@@H]3O[C@H](CO)[C@@H](O)[C@H](O)[C@H]3O)n2)cc1
39.7	Cc1cc(C)cc(-c2n[nH]c([C@@H]3O[C@H](CO)[C@@H](O)[C@H](O)[C@H]3O)n2)c1
12	OC[C@H]1O[C@@H](c2nc(-c3ccc4ccccc4c3)no2)[C@H](O)[C@@H](O)[C@@H]1O
0.67	Nc1ccc(-c2n[nH]c([C@@H]3O[C@H](CO)[C@@H](O)[C@H](O)[C@H]3O)n2)cc1
33.5	O=[N+]([O-])c1ccc(-c2n[nH]c([C@@H]3O[C@H](CO)[C@@H](O)[C@H](O)[C@H]3O)n2)cc1
2.1	OC[C@H]1O[C@@H](c2nc3cc4ccccc4cc3[nH]2)[C@H](O)[C@@H](O)[C@@H]1O
2.9	OC[C@H]1O[C@@H](c2nc(-c3ccc(O)cc3)n[nH]2)[C@H](O)[C@@H](O)[C@@H]1O

Further lines, the compound ahead of its results:

SMILES	Ki [µM]
Nc1cc(N)cc(-c2n[nH]c([C@@H]3O[C@H](CO)[C@@H](O)[C@H](O)[C@H]3O)n2)c1	14
OC[C@H]1O[C@@H](c2nc(-c3ccc(C(F)(F)F)cc3)n[nH]2)[C@H](O)[C@@H](O)[C@@H]1O	111
Cc1n[nH]c([C@@H]2O[C@H](CO)[C@@H](O)[C@H](O)[C@H]2O)n1	499
CC(C)(C)c1ccc(-c2n[nH]c([C@@H]3O[C@H](CO)[C@@H](O)[C@H](O)[C@H]3O)n2)cc1	778
OC[C@H]1O[C@@H](c2nc(-c3ccccn3)n[nH]2)[C@H](O)[C@@H](O)[C@@H]1O	707
OC[C@H]1O[C@@H](c2nc(-c3ccccc3)no2)[C@H](O)[C@@H](O)[C@@H]1O	27

Target: T1, Glycogen phosphorylase, muscle form (Oryctolagus cuniculus)
Assay: Inhibition of rabbit muscle glycogen phosphorylase b

inhibition	SMILES
inactive	Cc1nc([C@@H]2O[C@H](CO)[C@@H](O)[C@H](O)[C@H]2O)no1
